Data published in US20100247564A1, “METHODS AND COMPOSITIONS FOR THE USE OF SARGASSUM FUSIFORME FOR THE INHIBITION OF HIV-1 INFECTION” (priority 2007, published 2010).
“Also recorded” adds a separate entry of the source. Where two headings read alike, the source gives them in different places.

What was measured:
[1] = tested on: cell fusion (anti-HIV activity); assay: Inhibition of cell fusion by individual fatty acids; format: cell-based; conditions: Human immunodeficiency virus 1, read-out: percentage of inhibition of cell fusion
Protocol: Anti-HIV activity of the individual fatty acids was tested at four different concentrations. The values given in Table 1 represent the percentage of inhibition of cell fusion in the presence of each fatty acid.

uninfected macrophages = assay: Toxicity (LD50) on uninfected macrophages; format: cell-based, human
X4-tropic NL4-3 [2] = assay: GHOST X4/R5 cell infection with X4-tropic NL4-3, flow cytometry; format: cell-based, HIV-1; conditions: for infected cells: 20% at 0 μM
BlaM-Vpr-X4-tropic NL4-3 = assay: microbe, parasite or virus in culture; format: cell-based, HIV-1; conditions: for virus-positive cells: 37.6% untreated
X4-tropic NL4-3 [3] = tested on: X4-tropic NL4-3
R5-tropic 81A = assay: GHOST X4/R5 cell infection with R5-tropic 81A, flow cytometry; format: cell-based, HIV-1; conditions: for infected cells: 52.5% at 0 μM
uninfected PBMCs = assay: Toxicity (LD50) on uninfected PBMCs; format: cell-based, human
[4] = tested on: R5-tropic primary isolate ADA
sCD4 [5] = target: T1, sCD4 (Homo sapiens, UniProt P01730); assay: Saturation transfer difference NMR (STD-NMR) binding to sCD4; conditions: NMR buffer with 20% d6-DMSO, room temperature
T1 construct: soluble CD4 (sCD4) protein; purchased Progenics Pharmaceuticals
Protocol: FIGS. 15A-E show in vitro binding experiments of sCD4 with PA. FIG. 15A is a homonuclear NMR spectrum of 100 μM PA in the NMR buffer (10 mM KPO4 buffer, pH 7.0, 20% d6-DMSO, and 80% D2O). […] Tryptophan fluorescence was measured using an excitation wavelength of 280 nm. An increase of PA causes a red shift of 2 nm and quenching of the tryptophan fluorescence of sCD4.
We used a one-dimensional saturation transfer difference NMR (STD-NMR) experiment to characterize the binding of PA to sCD4 in vitro. […]
To perform the STD-NMR experiment, we used commercially available sCD4 (200 μg, 4.4 nmol, Progenics Pharmaceuticals), which was exchanged into the NMR buffer (160 μl of D2O and 40 μl d6-DMSO, containing 10 mM KPO4 buffer, pH 7.0). […] The NMR data were processed and analyzed using Topspin 2.0 (Bruker).
During the STD-NMR experiment, we titrated increasing concentrations of PA into sCD4 solution, and observed PA binding to sCD4, as shown by an increase in the intensity of the ligand STD-NMR signal (FIGS. 15A and 15B). The intensity of the STD signal was quantified by calculating the difference between the intensity of one signal in the off-resonance NMR spectrum, or reference NMR spectrum (I0), and the intensity of a signal in the on-resonance NMR spectrum (Isat) for various concentrations of the ligand (FIG. 15C). […]

sCD4 [6] = target: T1, sCD4; assay: sCD4 tryptophan fluorescence titration; format: binding
Protocol: The tryptophan fluorescence of sCD4 was used to estimate binding affinity of PA to sCD4. Measurements were performed on a Fluorolog-3 fluorescence spectrophotometer (Horiba Jobin Yvon) at 25° in a 1-ml stirred cuvette. For fluorescence titration experiments, 2 μM of sCD4 (Progenics Pharmaceuticals) dissolved in the NMR buffer was used, and a 1 mM solution of PA dissolved in the NMR buffer was added in 1 μM steps. Titrations in the absence of sCD4 were performed as a reference. Tryptophan fluorescence was measured using an excitation wavelength of 290 nm. The fluorescence emission signal was subtracted from the signal of the reference titrations, and the differences adjusted by the dilution factor were plotted against the final concentration of added PA. Curve fitting (OriginLab) was performed to find the best values for the Kd using a single-site binding isotherm approximation.

ectocervix tissue = assay: Ectocervix tissue viability, MTT assay; format: cell-based, human; conditions: day 10 after infection, PA-treated compared to untreated tissue
HIV-1 R5 BaL = assay: HIV-1 BaL infection of human ectocervix tissue ex vivo, p24 ELISA; conditions: for HIV-1 replication (p24): 100 μM PA; for HIV-1 infection reduced: 200 μM PA; for inhibition at 100 µM: Human immunodeficiency virus 1, BAL, in Homo sapiens, read-out: inhibition of HIV-1 infection
Protocol: Ectocervix tissue samples from premenopausal women were directly cultured in a non-polarized manner in 48-well plates in 300 μl/well DMEM/F 12 media for 10 days. […] Tissue was washed 3 times and returned to culture with each respective treatment for the duration of the experiment. At the indicated time points, HIV-1 replication was tested by p24 ELISA, and a two-tailed Student's t-test with p<0.05 was used to calculate statistical significance.
Ectocervix tissue samples (3-mm^3 biopsy) from premenopausal women with conditions not involving cervix were obtained in accordance with AMC approved Institutional Review Board (IRB) protocol, and were processed within 1-3 hours after surgery. Tissue was cultured in a non-polarized manner in 48-well plates in 300 μl/well DMEM/F12 media (Invitrogen) supplemented with 10% FBS for the duration of the experiment. Tissue was treated with the indicated concentrations of PA and infected with HIV-1 R5 BaL at 0.3 MOI.
Before infection, cells or cervix tissue were incubated for the indicated time in culture media with different concentrations of either PA. Cells or tissue were then washed 3 times with HBSS (Invitrogen), and infected with HIV-1 at the indicated MOI. Infected cells or tissue were washed 3 times, and returned to culture with the same concentration of each treatment for the duration of experiment. Infection was monitored in cell-free supernatants by HIV-1 p24 core antigen content accumulation by enzyme-linked immunosorbent assay (ELISA) using an HIV-1 Ag kit, as specified by the manufacturer.

NL4-3 = assay: MAGI cell assay with sCD4; format: cell-based, HIV-1; conditions: increasing concentrations of PA with 200 nM sCD4
[7] = Human immunodeficiency virus 1, NL43, SUP-T1, read-out: inhibition of HIV-1 fusion
[8] = Human immunodeficiency virus 1, read-out: inhibition of infection (R5)
[9] = saturating concentrations of PA

CCCCCCCCCCCCCCCC(=O)O [PA, palmitic acid]
inhibition at 0.5 µg/mL ([1]; 0.5 μg/ml): 33.5%
inhibition at 1 µg/mL ([1]; 1 μg/ml): 46.1%
inhibition at 2 µg/mL ([1]; 2 μg/ml): 64.2%
inhibition at 5 µg/mL ([1]; 5 μg/ml): 50.6%
LD50 (uninfected macrophages): 400 µM
infected cells (X4-tropic NL4-3 [2]; 10 μM PA): 17.46%
infected cells (X4-tropic NL4-3 [2]; 20 μM PA): 15.25%
infected cells (X4-tropic NL4-3 [2]; 40 μM PA): 12.03%
infected cells (X4-tropic NL4-3 [2]; 60 μM PA): 9.62%
infected cells (X4-tropic NL4-3 [2]; 100 μM PA): 5.9%
IC50 (X4-tropic NL4-3 [2]; Human immunodeficiency virus 1, NL43, read-out: mean inhibitory concentration (IC50) for X4 inhibition): ~56 µM
inhibition at 10 µM (X4-tropic NL4-3 [2]; Human immunodeficiency virus 1, NL43, 10 μM PA): 13%
inhibition at 20 µM (X4-tropic NL4-3 [2]; Human immunodeficiency virus 1, NL43, 20 μM PA): 24%
inhibition at 40 µM (X4-tropic NL4-3 [2]; Human immunodeficiency virus 1, NL43, 40 μM PA): 40%
inhibition at 60 µM (X4-tropic NL4-3 [2]; Human immunodeficiency virus 1, NL43, 60 μM PA): 52%
inhibition at 100 µM (X4-tropic NL4-3 [2]; Human immunodeficiency virus 1, NL43, 100 μM PA): 70%
virus-positive cells (BlaM-Vpr-X4-tropic NL4-3; 2 μM PA): 24.6%
virus-positive cells (BlaM-Vpr-X4-tropic NL4-3; 4 μM PA): 19.7%
virus-positive cells (BlaM-Vpr-X4-tropic NL4-3; 8 μM PA): 14.4%
inhibition at 2 µM (BlaM-Vpr-X4-tropic NL4-3; [7]): 34.6%
inhibition at 4 µM (BlaM-Vpr-X4-tropic NL4-3; [7]): 47.8%
inhibition at 8 µM (BlaM-Vpr-X4-tropic NL4-3; [7]): 61.6%
IC50 (X4-tropic NL4-3 [3]; Human immunodeficiency virus 1, NL43, PBMC, 144 h): ~0.9 µM
inhibition of virus replication (X4-tropic NL4-3 [3]; up to 22 μM PA, day 6 (peak of infection)): 95%
infected cells (R5-tropic 81A; 10 μM PA): 44.77%
infected cells (R5-tropic 81A; 20 μM PA): 36.06%
infected cells (R5-tropic 81A; 40 μM PA): 29.88%
infected cells (R5-tropic 81A; 60 μM PA): 22.88%
infected cells (R5-tropic 81A; 100 μM PA): 14.45%
inhibition at 10 µM (R5-tropic 81A; [8]): 15%
inhibition at 20 µM (R5-tropic 81A; [8]): 31%
inhibition at 40 µM (R5-tropic 81A; [8]): 43%
inhibition at 60 µM (R5-tropic 81A; [8]): 56%
inhibition at 100 µM (R5-tropic 81A; [8]): 73%
IC50 (R5-tropic 81A; Human immunodeficiency virus 1, read-out: mean inhibitory concentration (IC50) for R5 inhibition): 51 µM
mean toxicity lethal dose (LD50) (uninfected PBMCs): ≈ 154 μM
IC50 ([4]; Human immunodeficiency virus 1, Macrophage): ~37 µM
inhibition of primary isolate ADA infection ([4]; up to 100 μM PA, day 10 (peak of replication)): 91%
STD-NMR signal on titration into sCD4 solution (sCD4 [5]): binds to sCD4 specifically
Kd (sCD4 [6]): 1.5 ± 0.2 µM
quenching of the sCD4 tryptophan fluorescence (sCD4 [6]; [9]): 30%
red shift of the emission peak (sCD4 [6]; [9]): 2 nm
tissue toxicity (MTT viability assay) (ectocervix tissue): not toxic to tissue; also recorded: absence of toxicity
HIV-1 replication (p24) (HIV-1 R5 BaL; day 4, untreated 943): 604 pg p24/ml
HIV-1 replication (p24) (HIV-1 R5 BaL; day 7, untreated 1421): 960 pg p24/ml
HIV-1 replication (p24) (HIV-1 R5 BaL; day 10, untreated 785): 452 pg p24/ml
HIV-1 infection reduced (HIV-1 R5 BaL; day 4): 38%
HIV-1 infection reduced (HIV-1 R5 BaL; day 10): 43%
inhibition at 100 µM (HIV-1 R5 BaL; 96 h): 36%
inhibition at 100 µM (HIV-1 R5 BaL; 168 h): 32%
inhibition at 100 µM (HIV-1 R5 BaL; 240 h): 42%
reversal of sCD4 inhibition of infection (NL4-3): completely reversed
